≈ marks a conversion by molar mass, not a printed value.
What was measured:
Msmeg = Msmeg (Mycolicibacterium smegmatis, UniProt A0QNE0); assay: Msmeg IC50; assay type: biochemical
M. tuberculosis = assay: MIC testing: Microplate Alamar Blue Assay; assay type: cell-based, Mycobacterium tuberculosis; conditions: Mycobacterium tuberculosis, lowest concentration preventing color change from blue to pink, read-out: Mtu MIC
Hinf = Hinf MIC; assay type: cell-based, Haemophilus influenzae; conditions: Haemophilus influenzae; read-out: Hinf_MIC
Sau = Sau MIC; assay type: cell-based, Staphylococcus aureus; conditions: Staphylococcus aureus; read-out: Sau_MIC
Spn = Spn MIC; assay type: cell-based, Streptococcus pneumoniae; conditions: Streptococcus pneumoniae; read-out: Spn_MIC

Chain of Msmeg (A0QNE0 whole entry): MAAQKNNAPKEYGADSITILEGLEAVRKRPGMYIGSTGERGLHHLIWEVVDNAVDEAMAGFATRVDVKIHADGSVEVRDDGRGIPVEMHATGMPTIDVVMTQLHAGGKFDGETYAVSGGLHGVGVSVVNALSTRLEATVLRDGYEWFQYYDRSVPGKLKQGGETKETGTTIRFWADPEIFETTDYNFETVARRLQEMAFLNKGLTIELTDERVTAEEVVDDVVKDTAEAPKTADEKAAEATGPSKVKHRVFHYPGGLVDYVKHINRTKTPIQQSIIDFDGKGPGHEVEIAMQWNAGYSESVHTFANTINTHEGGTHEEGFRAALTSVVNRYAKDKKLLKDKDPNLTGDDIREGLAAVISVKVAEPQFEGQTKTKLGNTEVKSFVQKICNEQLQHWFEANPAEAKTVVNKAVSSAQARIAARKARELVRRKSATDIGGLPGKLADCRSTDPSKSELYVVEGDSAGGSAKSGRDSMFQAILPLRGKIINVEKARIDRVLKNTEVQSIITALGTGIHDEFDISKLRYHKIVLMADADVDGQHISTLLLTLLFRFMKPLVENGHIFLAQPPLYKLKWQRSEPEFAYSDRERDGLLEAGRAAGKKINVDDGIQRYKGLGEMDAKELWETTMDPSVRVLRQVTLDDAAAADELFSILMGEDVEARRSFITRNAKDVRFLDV

SMILES	IC50 (Msmeg)	MIC (M. tuberculosis)	MIC (Hinf)	MIC (Sau)	MIC (Spn)
CCn1ncnc1-c1nc(N2CC[C@@H](NC(=O)c3[nH]c(C)c(Br)c3Cl)[C@@H](OC)C2)sc1C(=O)O [Example 14, 2-((3S,4R)-4-(4-bromo-3-chloro-5-methyl-1H-pyrrole-2-carboxamido)-3-methoxypiperidin-1-yl)-4-(1-ethyl-1H-1,2,4-triazol-5-yl) thiazole-5-carboxylic acid]	< 2.5 nM	0.03 µg/mL (≈ 0.0524 µM)	0.125 µg/mL (≈ 0.218 µM)	0.125 µg/mL (≈ 0.218 µM)	0.125 µg/mL (≈ 0.218 µM)
Cc1[nH]c(C(=O)N[C@@H]2CCN(c3nc(-c4ncnn4C)c(C(=O)O)s3)C[C@@H]2F)c(Br)c1Cl [Example 5, 2-((3S,4R)-4-{[(3-Bromo-4-chloro-5-methyl-1H-pyrrol-2-yl)carbonyl]amino}-3-fluoropiperidin-1-yl)-4-(1-methyl-1H-1,2,4-triazol-5-yl)-1,3-thiazole-5-carboxylic acid]	< 4 nM	< 0.06 µg/mL	27.3 µg/mL (≈ 50 µM)	0.106 µg/mL (≈ 0.194 µM)	0.106 µg/mL (≈ 0.194 µM)
CO[C@H]1CN(c2nc(-c3nccn3C)c(C(=O)O)s2)CC[C@H]1NC(=O)c1[nH]c(C)c(Cl)c1Br [Example 3, 2-((3S,4R)-4-{[(3-bromo-4-chloro-5-methyl-1H-pyrrol-2-yl)carbonyl]amino}-3-methoxypiperidin-1-yl)-4-(1-methyl-1H-imidazol-2-yl)-1,3-thiazole-5-carboxylic acid]	6 nM	0.125 µg/mL (≈ 0.224 µM)	0.25 µg/mL (≈ 0.448 µM)	0.125 µg/mL (≈ 0.224 µM)	0.125 µg/mL (≈ 0.224 µM)
CCO[C@H]1CN(c2nc(-c3ncnn3C)c(C(=O)O)s2)CC[C@H]1NC(=O)c1[nH]c(C)c(Cl)c1Br [Example 10]	< 2.5 nM	0.008 µg/mL (≈ 0.014 µM)	0.125 µg/mL (≈ 0.218 µM)	0.125 µg/mL (≈ 0.218 µM)	0.125 µg/mL (≈ 0.218 µM)
CO[C@H]1CN(c2nc(-c3ncnn3CC3CC3)c(C(=O)O)s2)CC[C@H]1NC(=O)c1[nH]c(C)c(Br)c1Cl [Example 18, 2-((3S,4R)-4-(4-bromo-3-chloro-5-methyl-1H-pyrrole-2-carboxamido)-3-methoxypiperidin-1-yl)-4-(1-(cyclopropylmethyl)-1H-1,2,4-triazol-5-yl) thiazole-5-carboxylic acid]	4 nM	0.06 µg/mL (≈ 0.1 µM)	0.5 µg/mL (≈ 0.835 µM)	0.125 µg/mL (≈ 0.209 µM)	0.25 µg/mL (≈ 0.417 µM)
CO[C@H]1CN(c2nc(-c3ncnn3C)c(C(=O)O)s2)CC[C@H]1NC(=O)c1[nH]c(C)c(C#N)c1Br [Example 8, 2-{(3S,4R)-4-[(3-Bromo-4-cyano-5-methyl-1H-pyrrole-2-carbonyl)-amino]-3-methoxy-piperidin-1-yl}-4-(2-methyl-2H-[1,2,4]triazol-3-yl)-thiazole-5-carboxylic acid]	< 0.25 nM	< 0.03 µg/mL	2 µg/mL (≈ 3.64 µM)	0.5 µg/mL (≈ 0.91 µM)	0.125 µg/mL (≈ 0.228 µM)
CCn1ncnc1-c1nc(N2CC[C@@H](NC(=O)c3[nH]c(C)c(Cl)c3Br)[C@@H](OC)C2)sc1C(=O)O [Example 13, 2-((3S,4R)-4-(3-bromo-4-chloro-5-methyl-1H-pyrrole-2-carboxamido)-3-methoxypiperidin-1-yl)-4-(1-ethyl-1H-1,2,4-triazol-5-yl) thiazole-5-carboxylic acid]	< 2.5 nM	0.015 µg/mL (≈ 0.0262 µM)	0.125 µg/mL (≈ 0.218 µM)	0.125 µg/mL (≈ 0.218 µM)	0.125 µg/mL (≈ 0.218 µM)
